Here are results for 5 compounds from patent US20070191349A1, “C8, c8' linked 5-oxo-1,2,3,11a-tetrahydro-5h-pyrrolo[2,1-c][1,4] benzodiazepine dimers with 1h-pyrrole-dicarboxylic acid amide linkers and oligomeric analogs therof as well as related compounds for the treatment of proliferative diseases” (SPIROGEN LIMITED, priority 2004, published 2007).

In assay [1] the test system is K562 human chronic myeloid leukaemia cells. Kind of assay: In vitro cytotoxicity, K562 cells, MTT assay. The class given is cell-based. The following applies: 1 h drug exposure, MTT after 4 days. The method, then: K562 human chronic myeloid leukaemia cells were maintained in RPM1 1640 medium supplemented with 10% fetal calf serum and 2 mM glutamine at 37° C. in a humidified atmosphere containing 5% CO2 and were incubated with a specified dose of drug for 1 h at 37° C. in the dark. The incubation was terminated by centrifugation (5 min, 300 g) and the cells were washed once with drug-free medium. Following the appropriate drug treatment, the cells were transferred to 96-well microtiter plates (10^4 cells per well, 8 wells per sample). Plates were then kept in the dark at 37° C. in a humidified atmosphere containing 5% CO2. The assay is based on the ability of viable cells to reduce a yellow soluble tetrazolium salt, 3-(4,5-dimethylthiazol-2-yl)-2,5-diphenyl-2H-tetrazolium bromide (MTT, Aldrich-Sigma), to an insoluble purple formazan precipitate. Following incubation of the plates for 4 days (to allow control cells to increase in number by approximately 10 fold), 20 μL of MTT solution (5 mg/mL in phosphate-buffered saline) was added to each well and the plates further incubated for 5 h. The plates were then centrifuged for 5 min at 300 g and the bulk of the medium pipetted from the cell pellet leaving 10-20 μL per well. DMSO (200 μL) was added to each well and the samples agitated to ensure complete mixing. The optical density was then read at a wavelength of 550 nm on a Titertek Multiscan ELISA plate reader, and a dose-response curve was constructed. For each curve, an IC50 value was read as the dose required to reduce the final optical density to 50% of the control value.

The test system of another assay is linear pBR322 DNA. Kind of assay: DNA cross-linking, electrophoretic assay (Hartley et al.). The class given is biochemical. The conditions noted are these: 2 h at 37° C., pH 7.2. As to the method:
The extent of DNA cross-linking induced by each PBD dimer was determined using the electrophoretic assay method of Hartley, et al. (Hartley, J. A., Berardini, M. D., and Souhami, R. L. (1991) Anal. Biochem. 193, 131-134) based on the principle that, following complete denaturation of linear pBR322 DNA (˜4,300 bp) to the single-stranded (SS) form, an interstrand cross-link results in renaturation to double-stranded (DS) in a neutral gel.
Closed-circular DNA was linearized with HindIII, then dephosphorylated and finally 5′-singly end-labelled using [γ^32P]-ATP and polynucleotide kinase. Reactions containing 30-40 ng of DNA and the test compound were carried out in aqueous TEOA (25 mM triethanolamine, 1 mM EDTA, pH 7.2) buffer at 37° C. in a final volume of 50 μl for 2 h. Reactions were terminated by addition of an equal volume of stop solution (0.6 M NaOAc, 20 mM EDTA, 100 μg/ml tRNA) followed by precipitation with ethanol. Following centrifugation, the supernatant was discarded and the pellet dried by lyophilization. […] Control non-denatured samples were re-suspended in 10 μl of non-denaturing buffer solution (0.6% sucrose, 0.04% bromophenol blue in aqueous TAE buffer [40 mM Tris, 20 mM acetic acid, 2 mM EDTA, pH 8.1]) and loaded directly onto the gel for comparison.
Electrophoresis was carried out for 14-16 h at 40 V using a 0.8% submerged agarose gel (20×25×0.5 cm) in TAE buffer. Gels were dried under vacuum for 2 h at 80° C. onto one layer each of Whatman 3MM and DE8I filter papers using a BioRad 583 gel dryer. Autoradiographs were obtained after exposure of Hyperfilm-MP film (Amersham plc, U.K.) to the dried gel for either 4 h with a screen (or over night, without a screen, to obtain a sharper image). Film bands were quantitated using a BioRad GS-670 imaging laser densitometer. Percentage cross-linking was calculated by measuring the total DNA in each lane (summed density for the double-stranded [DS] and single-stranded [SS] bands) relative to the amount of cross-linked DNA (density of DS band alone). A dose-response curve was derived by plotting drug concentration against the determined percentage level of cross-linked DNA which was then analysed to determine the concentration of test compound that results in 50% cross-linked plasmid DNA (XL50).

Assay [2] concerns approximately 60 human tumour cell lines. Kind of assay: NCI60 cell screen, in vitro cytotoxicity, SRB assay. The class given is cell-based. The following applies: NCI 60 human tumour cell lines, 48 h continuous exposure. The method, then: The National Cancer Institute (NCI), Bethesda, Md., USA has available an in vitro cytotoxicity screen which consists of approximately 60 human tumour cell lines against which compounds are tested at a minimum of five concentrations each differing 10-fold. A 48 h continuous exposure protocol is used, where cell viability or growth is estimated with an SRB protein assay.
The test compounds were evaluated against approximately 60 human tumour cell lines. The NCI screening procedures were described in detail by Monks and co-workers (Monks, A et al., Journal of the National Cancer Institute, 1991, 83, 757). Briefly, cell suspensions were diluted according to the particular cell type and the expected target cell density (5000-40,000 cells per well based on cell growth characteristics), and added by pipette (100 μL) into 96-well microtitre plates. The cells were allowed a preincubation period of 24 h at 37° C. for stabilisation. Dilutions at twice the intended test concentration were added at time zero in 100 μL aliquots to the wells. The test compounds were evaluated at five 10-fold dilutions (10^−4, 10^−5, 10^−6, 10^−7 and 10^−[…]). The test compounds were incubated for 48 h in 5% CO2 atmosphere and 100% humidity. The cells were then assayed using the sulphorhodamine B assay. A plate reader was used to read the optical densities and a microcomputer processed the readings into GI50 values (in Moles), which is the dosage required to limit cell growth to 50%.
A general note: The SRB assay estimates cell density from bound dye.

Setting [3] is: Alkali, read-out: XL50 (concentration that results in 50% cross-linked plasmid DNA), Alkali.
The mark [4] stands for this setting: Heat, read-out: XL50 (concentration that results in 50% cross-linked plasmid DNA), Heat.

Where two headings read alike, the source gives them in different places.

The term IC50 denotes the midpoint of a concentration-inhibition curve. One may read the GI50 as the concentration giving 50% growth inhibition. A low value points to more potent growth inhibition. In the case of `COc1cc2c(cc1NC(=O)c1ccc(C(=O)Nc3cc4c(cc3OC)C(=O)N3CCC[C@H]3C=N4)n1C)N=C[C@@H]1CCCN1C2=O` [(1) SJG-605, 1-Methyl-1H-pyrrole-2,5-dicarboxylic acid bis-[(11aS)(7-methoxy-5-oxo-1,2,3,11a-tetrahydro-5H-pyrrolo[2,1-c][1,4]benzodiazepin-8-yl)-amide]], in assay [1], the IC50 turned out to be 1200 nM. In addition, the EC50 in the assay on linear pBR322 DNA (setting [3]) came to 1300 nM. The GI50 in assay [2] turned out to be 1000 nM.

Consider `COc1cc2c(cc1OCCCC(=O)Nc1cc(C(=O)NCCCNC(=O)c3cc(NC(=O)CCCOc4cc5c(cc4OC)C(=O)N4CCC[C@H]4C=N5)cn3C)n(C)c1)N=C[C@@H]1CCCN1C2=O` [(15) AT-281], for which the IC50 in assay [1] was 340 nM. The GI50 in assay [2] worked out at 10 nM.

In assay [1], `COc1cc2c(cc1OCCCNC(=O)c1cc(NC(=O)c3cc(NC(=O)c4cc(NC(=O)CCCOc5cc6c(cc5OC)C(=O)N5CCC[C@H]5C=N6)cn4C)cn3C)cn1C)N=C[C@@H]1CCCN1C2=O` [(18) AT-235] displayed an IC50 of 1510 nM. The EC50 is less than 100 nM with linear pBR322 DNA (setting [3]) and 230 nM in the assay with linear pBR322 DNA (setting [4]). The GI50 in assay [2] was 10 nM.

As to `COc1cc2c(cc1NC(=O)c1cc(C(=O)Nc3cc4c(cc3OC)C(=O)N3CCC[C@H]3C=N4)n(C)c1)N=C[C@@H]1CCCN1C2=O` [(2) SJG-604, 1-Methyl-1H-pyrrole-2,4-dicarboxylic acid bis-[(11aS)(7-methoxy-5-oxo-1,2,3,11a-tetrahydro-5H-pyrrolo[2,1-c][1,4]benzodiazepin-8-yl)-amide]], in assay [1], the IC50 was 23000 nM. Further, the EC50 in the assay with linear pBR322 DNA (setting [3]) was determined as 3500 nM. Moreover, the GI50 in assay [2] amounted to 31600 nM.

Turning to `COc1cc2c(cc1OCCCNC(=O)c1ccc(C(=O)NCCCOc3cc4c(cc3OC)C(=O)N3CCC[C@H]3C=N4)n1C)N=C[C@@H]1CCCN1C2=O` [(13) AT-217], the EC50 in the assay with linear pBR322 DNA (setting [3]) stood at 350 nM; in the assay on linear pBR322 DNA (setting [4]), 3800 nM. Also, in assay [2], the GI50 turned out to be 19000 nM.
